Key:
[1] = system: Sp1; assay: EMSA of Sp1 binding to the IL-10 promoter motif, nuclear extracts of BMMφ; format: cell-based, mice; settings: BMMφ stimulated with LPS 10 ng/ml or LPS+E-IgG for 30 min
Protocol: A. Cells were stimulated with LPS (10 ng/ml) or LPS+E-IgG for 30 min and nuclear extracts were analyzed by EMSA using Sp1 (A) or STAT3 (B) specific probes. C. RAW264.7 cells were stimulated with medium (open bar), E-IgG (dotted bar), LPS (solid bar) or LPS+E-IgG (striped bar) and cytokines measured by ELISA after 6 h. Data represents the mean of triplicate samples±SD. D. RAW264.7 cells were transfected with pRL-IL10-luciferase reporter plasmid (5 ug/ml) and 24 h later stimulated with medium (con), 10 ng/ml LPS (solid bar) or E-IgG+LPS (striped bar) for 4 h. Cells were then lysed and luciferase activity measured. This figure is representative of 3 experiments.
Electrophoretic mobility shift assay (EMSA). Nuclear extracts were prepared from 2×10^7 Mφ using the Nuclear Extraction kit (Panomics, Redwood City, Calif.) following the manufactures protocol. EMSAs were carried out using the EMSA “Gel-Shift” kit (Panomics, Redwood City, Calif.). Briefly, 5 μg of nuclear extract were incubated with biotin-Sp1 or STAT3 probe±unlabelled probe for 30 min at 20° C., and then run on a 6% polyacrylamide gel. Oligo/protein complexes were transferred to Biodyne B membrane (Pall, Ann Arbor, Mich.). Following transfer, membranes were incubated with streptavidin-HRP and protein visualized by chemiluminescence.

[2] = system: bone marrow derived macrophages (BMMφ); assay: Cytokine ELISA on supernatants of stimulated bone marrow derived macrophages (LPS ± E-IgG)
[3] = system: IL-10 promoter; assay: ChIP of Sp1 and STAT3 binding to the IL-10 promoter in situ in stimulated BMMφ; format: cell-based, mice
Protocol: BMMφ were stimulated with medium (open bar), E-IgG (dotted bar), LPS (solid bar), or LPS+E-IgG (striped bar) for 40 min. Some cells were pretreated with PD98059 (10 μM). Immunoprecipitations were carried out using either Sp1 or STAT3 specific Abs. A. Conventional RT-PCR was carried out using primers which amplify the putative Sp1 or STAT3 binding sites of the IL-10 promoter respectively. B. Real time PCR analysis of samples obtained in A. Samples were normalized to input DNA controls.
FIG. 22 is a graph showing Inhibition of histone modifications by blocking ERK. BMMφ were pre-treated with PD98059 (15 μM) (solid bars) or drug vehicle (open bars) for 1 hour and then stimulated with IC plus LPS (10 ng/mL). Cross-linked chromatin fragments were immunoprecipitated with antibody to phosphorylated histone H3 at Ser 10 or antibody to Sp1. The DNA was purified and analyzed for the presence of IL-10 promoter sequences corresponding to nucleosome −2 by QRT-PCR. The data were plotted graphically as the percentage change relative to drug vehicle (IC/LPS) at 30 min post-stimulation for histone H3 phosphorylation, and at 45 min post-stimulation for Sp1 recruitment. One representative from two independent experiments is presented.
Chromatin immunoprecipitation (ChIP). ChIPs were carried out using the ChIP Assay kit following the manufacturer's protocol (Upstate USA, Inc., Lake Placid, N.Y.). […]

**Q.** Which “Sp1 binding to the IL-10 promoter (EMSA)” value [1] does the source give for `COc1cccc(-c2cc(=O)c3ccccc3o2)c1N` [PD98059] here?
**A.** no effect

**Q.** What about the “IL-10 secretion (ELISA)” value ([2]; BMMφ pretreated 30 min with PD98059 10 μM, SB203580 1 μM or JNK inhibitory peptide 1 μM, then LPS 10 ng/ml ± E-IgG, supernatants after 20 h) of the same molecule?
**A.** substantial inhibition

**Q.** What about the “IL-12 (p40) production (ELISA)” value ([2]; BMMφ pretreated 30 min with inhibitor, then LPS 10 ng/ml ± E-IgG, 20 h) of the same molecule?
**A.** actually increased

**Q.** What about the “superinduction (augmentation) of IL-10 production caused by immune complexes” value ([2]; BMMφ, LPS 10 ng/ml + E-IgG versus LPS alone, 20 h, inhibitor pretreatment or 100 nM siRNA) of the same molecule?
**A.** appeared to prevent

**Q.** What about the “Sp1 recruitment to IL-10 promoter nucleosome −2 (ChIP, QRT-PCR)” value ([3]; BMMφ pre-treated with PD98059 15 μM for 1 hour, IC plus LPS 10 ng/mL, 45 min post-stimulation, relative to drug vehicle) of the same molecule?
**A.** dramatically reduced

**Q.** And the “Sp1 and STAT3 transcription factor binding to the IL-10 promoter in situ (ChIP)” value ([3]; BMMφ pretreated with PD98059 10 μM, LPS + E-IgG for 40 min)?
**A.** reversed

From patent US7524487B2, “Compositions and methods for modulating interleukin-10” (University of Maryland, priority 2005, dated 2009)
